ChEMBL document CHEMBL5034023, “Development of Multifunctional and Orally Active Cyclic Peptide Agonists of Opioid/Neuropeptide FF Receptors that Produce Potent, Long-Lasting, and Peripherally Restricted Antinociception with Diminished Side Effects” (J Med Chem, 2021)
Calls of active or inactive are those of the source. The calls are words filed in the database; no cut-off is given here. Bridge positions count the residues as written; N and C are the ends. Square brackets hold non-standard residues; d marks the D form. Peptide text beside a SMILES is read from it. NMeF = CN[C@@H](Cc1ccccc1)C(=O)O; dOrn = NCCC[C@@H](N)C(=O)O; dDab = NCC[C@@H](N)C(=O)O

What was measured:
[1] = system: Mus musculus; assay: Antinociceptive activity against Kunming mouse model of thermal-induced nociception assessed as maximum possible effect at 264201 nmol/kg, po measured after 30 min by tail flick test relative to control; type: functional; conditions: 0.5 h
[2] = system: Mus musculus; assay: Antinociceptive activity against Kunming mouse model of thermal-induced nociception assessed as maximum possible effect at 264201 nmol/kg, po measured after 60 min by tail flick test relative to control; type: functional; conditions: 1 h
[3] = system: Mus musculus; assay: Antinociceptive activity against Kunming mouse model of thermal-induced nociception assessed as maximum possible effect at 264201 nmol/kg, po measured after 20 min by tail flick test relative to control; type: functional
[4] = system: Mus musculus; assay: Antinociceptive activity against Kunming mouse model of thermal-induced nociception assessed as prolongation of tail-flick latency period at 264 umol/kg, po measured up to 240 mins by tail-flick test; type: functional, organism-based; conditions: dose 264.0 µmol/kg, time min <=240
[5] = molecular target: T1, Neuropeptide FF receptor 2 (Homo sapiens, UniProt Q9Y5X5); assay: (§1) Agonist activity at NPFF2R (unknown origin) expressed in HEK293-A cells assessed as inhibition of forskolin-induced cAMP accumulation preincubated for 30 mins in presence of 3-isobutyl-1-methylxanthine followed by forskolin and compound addition by competitive PKA binding assay; type: functional, cell-based
T1 sequence (Q9Y5X5 whole entry): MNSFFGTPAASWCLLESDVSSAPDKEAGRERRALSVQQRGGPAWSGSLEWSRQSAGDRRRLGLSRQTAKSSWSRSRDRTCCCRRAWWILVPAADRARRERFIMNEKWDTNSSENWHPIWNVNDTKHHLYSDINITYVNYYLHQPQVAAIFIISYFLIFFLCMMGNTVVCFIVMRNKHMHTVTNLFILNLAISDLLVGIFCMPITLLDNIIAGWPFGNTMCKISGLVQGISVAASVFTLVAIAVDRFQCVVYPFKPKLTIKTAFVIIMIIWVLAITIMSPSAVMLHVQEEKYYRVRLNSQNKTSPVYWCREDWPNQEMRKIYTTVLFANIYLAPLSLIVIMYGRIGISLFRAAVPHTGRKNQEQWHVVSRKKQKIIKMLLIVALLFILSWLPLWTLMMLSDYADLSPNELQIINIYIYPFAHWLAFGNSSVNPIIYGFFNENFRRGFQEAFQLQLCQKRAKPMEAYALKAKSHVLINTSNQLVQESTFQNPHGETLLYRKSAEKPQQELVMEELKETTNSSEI

[6] = molecular target: Kappa-type opioid receptor (Homo sapiens, UniProt P41145); type: functional, cell-based, HEK293-A
Sequence of Kappa-type opioid receptor (P41145 whole entry): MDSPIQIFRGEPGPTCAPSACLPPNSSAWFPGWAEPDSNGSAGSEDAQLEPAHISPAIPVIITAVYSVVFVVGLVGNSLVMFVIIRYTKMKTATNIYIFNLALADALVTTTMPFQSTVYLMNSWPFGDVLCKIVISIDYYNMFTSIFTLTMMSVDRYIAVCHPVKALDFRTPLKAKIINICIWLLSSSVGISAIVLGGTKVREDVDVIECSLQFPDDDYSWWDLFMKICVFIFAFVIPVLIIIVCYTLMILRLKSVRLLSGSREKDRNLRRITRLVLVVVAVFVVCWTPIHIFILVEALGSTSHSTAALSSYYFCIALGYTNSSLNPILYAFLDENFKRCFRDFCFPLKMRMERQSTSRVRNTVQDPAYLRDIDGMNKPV

[7] = molecular target: T2, Delta-type opioid receptor (Homo sapiens, UniProt P41143); assay: (§2) Agonist activity at DOR (unknown origin) expressed in HEK293-A cells assessed as inhibition of forskolin-induced cAMP accumulation preincubated for 30 mins in presence of 3-isobutyl-1-methylxanthine followed by forskolin and compound addition by competitive PKA binding assay; type: functional, cell-based
T2 sequence (P41143 whole entry): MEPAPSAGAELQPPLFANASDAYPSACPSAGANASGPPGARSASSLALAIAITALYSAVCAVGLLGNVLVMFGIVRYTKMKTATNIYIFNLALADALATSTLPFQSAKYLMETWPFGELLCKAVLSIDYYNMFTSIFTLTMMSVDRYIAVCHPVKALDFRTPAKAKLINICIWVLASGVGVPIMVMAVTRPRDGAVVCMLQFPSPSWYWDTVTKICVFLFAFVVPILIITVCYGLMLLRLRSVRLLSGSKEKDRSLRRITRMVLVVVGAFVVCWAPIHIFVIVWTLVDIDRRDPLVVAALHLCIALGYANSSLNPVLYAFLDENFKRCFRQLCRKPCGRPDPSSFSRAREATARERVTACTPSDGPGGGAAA

[8] = molecular target: T1, Neuropeptide FF receptor 2; assay: as §1, with “accumulation by measuring maximal efficacy” for “accumulation”, “assay relative to control” for “assay”; type: functional, cell-based; conditions: filed as agonist
[9] = system: Mus musculus; assay: Antinociceptive activity against Kunming mouse model of thermal-induced nociception assessed as maximum possible effect at 87.9 nmol/kg, po measured after 60 min by tail flick test relative to control; type: functional; conditions: 1 h
[10] = molecular target: T2, Delta-type opioid receptor; assay: (§3) Agonist activity at DOR (unknown origin) expressed in HEK293-A cells assessed as inhibition of forskolin-induced cAMP accumulation preincubated for 30 mins in presence of 3-isobutyl-1-methylxanthine followed by forskolin and compound addition by competitive PKA binding assay relative to control; type: functional, cell-based
[11] = system: Mus musculus; assay: Antinociceptive activity against Kunming mouse model of thermal-induced nociception assessed as peripheral analgesia administered subcutaneously by tail-flick test; type: functional; conditions: sc
[12] = molecular target: T3, Neuropeptide FF receptor 1 (Homo sapiens, UniProt Q9GZQ6); assay: Agonist activity at NPFF1R (unknown origin) expressed in HEK293-A cells assessed as inhibition of forskolin-induced cAMP accumulation preincubated for 30 mins in presence of 3-isobutyl-1-methylxanthine followed by forskolin and compound addition by competitive PKA binding assay; type: functional, cell-based
T3 sequence (Q9GZQ6 whole entry): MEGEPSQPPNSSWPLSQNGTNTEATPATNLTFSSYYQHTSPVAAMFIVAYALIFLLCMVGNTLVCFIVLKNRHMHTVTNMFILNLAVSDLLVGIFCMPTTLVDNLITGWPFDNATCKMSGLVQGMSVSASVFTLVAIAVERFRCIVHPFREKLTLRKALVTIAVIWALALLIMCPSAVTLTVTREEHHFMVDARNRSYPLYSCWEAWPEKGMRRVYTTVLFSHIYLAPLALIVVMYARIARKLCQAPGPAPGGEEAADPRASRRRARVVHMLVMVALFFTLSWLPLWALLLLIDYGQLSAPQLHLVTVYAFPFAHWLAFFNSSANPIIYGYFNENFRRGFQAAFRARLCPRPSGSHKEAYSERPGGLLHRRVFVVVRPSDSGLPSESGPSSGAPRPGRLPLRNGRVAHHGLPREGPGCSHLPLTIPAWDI

[13] = system: Mus musculus; assay: Antinociceptive activity against Kunming mouse model of thermal-induced nociception assessed as maximum possible effect at 87.9 nmol/kg, po measured after 20 min by tail flick test relative to control; type: functional
[14] = system: Mus musculus; assay: Antinociceptive activity in Kunming mouse assessed as analgesic tolerance administered subcutaneously once daily for 8 days by tail flick test; type: functional, organism-based; conditions: time 8.0 day
[15] = system: Mus musculus; assay: Antinociceptive activity against Kunming mouse model of thermal-induced nociception assessed as maximum possible effect at 87.9 nmol/kg, po measured after 30 min by tail flick test relative to control; type: functional; conditions: 0.5 h
[16] = molecular target: T3, Neuropeptide FF receptor 1; assay: as §3, with “NPFF1R” for “DOR”, “accumulation by measuring maximal efficacy” for “accumulation”; type: functional, cell-based; conditions: filed as agonist
[17] = system: Mus musculus; assay: Antinociceptive activity against Kunming mouse model of thermal-induced nociception assessed as duration of analgesic effect administered subcutaneously by tail-flick test; type: functional
[18] = molecular target: Mu-type opioid receptor (Homo sapiens, UniProt P35372)
Sequence of Mu-type opioid receptor (P35372 whole entry): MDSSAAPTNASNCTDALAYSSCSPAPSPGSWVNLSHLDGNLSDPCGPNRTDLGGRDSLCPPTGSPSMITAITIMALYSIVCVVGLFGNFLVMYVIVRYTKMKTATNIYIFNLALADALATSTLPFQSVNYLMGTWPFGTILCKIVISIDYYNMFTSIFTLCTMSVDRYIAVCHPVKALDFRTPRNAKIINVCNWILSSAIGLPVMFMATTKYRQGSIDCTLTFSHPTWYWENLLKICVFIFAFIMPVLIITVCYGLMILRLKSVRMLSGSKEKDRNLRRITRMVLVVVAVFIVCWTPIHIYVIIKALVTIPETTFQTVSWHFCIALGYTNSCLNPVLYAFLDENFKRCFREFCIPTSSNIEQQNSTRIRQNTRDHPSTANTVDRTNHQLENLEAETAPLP

[19] = system: Mus musculus; assay: Potency index, ratio of test compound ED50 to DN-9 ED50 for antinociceptive activity against Kunming mouse model of thermal-induced nociception assessed as peripheral analgesia administered subcutaneously by tail-flick test; type: functional
[20] = Metabolic stability in mouse plasma assessed as degradation half life at 0.01 M measured up to 360 mins; type: ADME, cell-free
[21] = system: Mus musculus; assay: Antinociceptive activity against Kunming mouse model of thermal-induced nociception assessed as maximum possible effect at 8681 nmol/kg, po measured after 60 min by tail flick test relative to control; type: functional; conditions: 1 h
[22] = system: Mus musculus; assay: Antinociceptive activity against Kunming mouse model of thermal-induced nociception assessed as maximum possible effect at 8681 nmol/kg, po measured after 20 min by tail flick test relative to control; type: functional
[23] = system: Mus musculus; assay: Antinociceptive activity against Kunming mouse model of thermal-induced nociception assessed as maximum possible effect at 8681 nmol/kg, po measured after 30 min by tail flick test relative to control; type: functional; conditions: 0.5 h
[24] = system: Mus musculus; assay: Antinociceptive activity against Kunming mouse model of thermal-induced nociception assessed as maximum possible effect at 89 nmol/kg, po measured after 30 min by tail flick test relative to control; type: functional; conditions: 0.5 h
[25] = system: Mus musculus; assay: Antinociceptive activity against Kunming mouse model of thermal-induced nociception assessed as maximum possible effect at 89 nmol/kg, po measured after 20 min by tail flick test relative to control; type: functional
[26] = system: Mus musculus; assay: Antinociceptive activity against Kunming mouse model of thermal-induced nociception assessed as maximum possible effect at 89 nmol/kg, po measured after 60 min by tail flick test relative to control; type: functional; conditions: 1 h
[27] = system: Mus musculus; assay: Antinociceptive activity against Kunming mouse model of thermal-induced nociception assessed as prolongation of tail-flick latency period at 38 umol/kg, po measured up to 240 mins by tail-flick test; type: functional, organism-based; conditions: dose 38.0 µmol/kg, time min <=240
[28] = system: Mus musculus; assay: Antinociceptive activity against Kunming mouse model of thermal-induced nociception assessed as maximum possible effect at 37915 nmol/kg, po measured after 30 min by tail flick test relative to control; type: functional; conditions: 0.5 h
[29] = system: Mus musculus; assay: Antinociceptive activity against Kunming mouse model of thermal-induced nociception assessed as maximum possible effect at 37915 nmol/kg, po measured after 60 min by tail flick test relative to control; type: functional; conditions: 1 h
[30] = system: Mus musculus; assay: Antinociceptive activity against Kunming mouse model of thermal-induced nociception assessed as maximum possible effect at 37915 nmol/kg, po measured after 20 min by tail flick test relative to control; type: functional
[31] = system: Mus musculus; assay: Antinociceptive activity against Kunming mouse model of thermal-induced nociception assessed as maximum possible effect at 86.8 nmol/kg, po measured after 60 min by tail flick test relative to control; type: functional; conditions: 1 h
[32] = system: Mus musculus; assay: Antinociceptive activity against Kunming mouse model of thermal-induced nociception assessed as maximum possible effect at 86.8 nmol/kg, po measured after 30 min by tail flick test relative to control; type: functional; conditions: 0.5 h
[33] = system: Mus musculus; assay: Antinociceptive activity against Kunming mouse model of thermal-induced nociception assessed as maximum possible effect at 86.8 nmol/kg, po measured after 20 min by tail flick test relative to control; type: functional
[34] = molecular target: T2, Delta-type opioid receptor; assay: as §2, with “Potency index, ratio of DN-9 EC50 to test compound EC50 for agonist” for “Agonist”; type: functional, cell-based

| Compound | EC50 ([5]; read-out: EC50) | EC50 [6] | EC50 [7] | Emax [8] | Emax ([10]; filed as agonist) | ED50 [11] | EC50 [12] | Activity [14] | Emax [16] | Tlast [17] | EC50 [18] | Ratio ED50 [19] | half-life at 10000 µM [20] | MPE [21] | MPE [22] | MPE [23] | also measured |
| --- | --- | --- | --- | --- | --- | --- | --- | --- | --- | --- | --- | --- | --- | --- | --- | --- | --- |
| CN1CC[C@]23c4c5ccc(O)c4O[C@H]2[C@@H](O)C=C[C@H]3[C@H]1C5 [MORPHINE] |  |  |  |  |  |  |  |  |  |  |  |  |  |  |  |  | MPE [1]: 87.6%; MPE [2]: 63%; MPE [3]: 75.3%; Activity [4]: Active |
| CN1C(=O)CNC(=O)[C@H](NC(=O)[C@@H](N)Cc2ccc(O)cc2)CCCNC(=O)C[C@@H](C(=O)N2CCC[C@H]2C(=O)N[C@@H](CCC(N)=O)C(=O)N[C@@H](CCCNC(=N)N)C(=O)N[C@@H](Cc2ccccc2)C(N)=O)NC(=O)[C@@H]1Cc1ccccc1 (H-Y[dOrn]G[NMeF]DPQRF-NH2; lactam 2-5) | 0.133 µM | 0.139 µM | 0.659 µM | 52.8% | 51.9% | 0.0132 µmol/kg | 0.439 µM | inactive | 72.4% | 240 min | 0.168 µM | 16.4 | 41.1 min |  |  |  | MPE [9]: 70.7%; MPE [13]: 80.8%; MPE [15]: 96% |
| CN1C(=O)CNC(=O)[C@@H](NC(=O)[C@@H](N)Cc2ccc(O)cc2)CCCCNC(=O)C[C@@H](C(=O)N2CCC[C@H]2C(=O)N[C@@H](CCC(N)=O)C(=O)N[C@@H](CCCNC(=N)N)C(=O)N[C@@H](Cc2ccccc2)C(N)=O)NC(=O)[C@@H]1Cc1ccccc1 (H-YKG[NMeF]DPQRF-NH2; lactam 2-5) | 0.112 µM | 0.32 µM | 0.0282 µM | 68.1% | 65.7% | 0.022 µmol/kg | 0.0289 µM | inactive | 80.6% | 240 min | 0.0726 µM |  | 9.9 min | 76.3% | 93.9% | 93.2% |  |
| CN1C(=O)CNC(=O)[C@H](NC(=O)[C@@H](N)Cc2ccc(O)cc2)CCNC(=O)C[C@@H](C(=O)N2CCC[C@H]2C(=O)N[C@@H](CCC(N)=O)C(=O)N[C@@H](CCCNC(=N)N)C(=O)N[C@@H](Cc2ccccc2)C(N)=O)NC(=O)[C@@H]1Cc1ccccc1 (H-Y[dDab]G[NMeF]DPQRF-NH2; lactam 2-5) | 0.265 µM | 0.0712 µM | 0.0951 µM | 63.2% |  | 0.0142 µmol/kg | 0.18 µM | inactive | 73.4% | 240 min | 0.0379 µM | 15.2 | 530 min |  |  |  | MPE [24]: 93.8%; MPE [25]: 80.8%; Emax [10]: 31.2%; MPE [26]: 74% |
| C[C@@H](NC(=O)[C@@H](N)Cc1ccc(O)cc1)C(=O)NCC(=O)N(C)[C@@H](Cc1ccccc1)C(=O)NCC(=O)N1CCC[C@H]1C(=O)N[C@@H](CCC(N)=O)C(=O)N[C@@H](CCCNC(=N)N)C(=O)N[C@@H](Cc1ccccc1)C(N)=O (H-Y[dA]G[NMeF]GPQRF-NH2) |  |  |  |  |  | 0.216 µmol/kg |  | inactive |  | 90 min |  | 1 | 21.8 min |  |  |  | Activity [27]: Active; MPE [28]: 63.1%; MPE [29]: 22.8%; MPE [30]: 75.6% |
| CN1C(=O)CNC(=O)[C@H](NC(=O)[C@@H](N)Cc2ccc(O)cc2)CC(=O)NCCCC[C@@H](C(=O)N2CCC[C@H]2C(=O)N[C@@H](CCC(N)=O)C(=O)N[C@@H](CCCNC(=N)N)C(=O)N[C@@H](Cc2ccccc2)C(N)=O)NC(=O)[C@@H]1Cc1ccccc1 (H-Y[dD]G[NMeF]KPQRF-NH2; lactam 2-5) | 0.303 µM | 0.0813 µM | 0.0742 µM | 71.8% | 56% | 0.0137 µmol/kg | 0.222 µM | inactive | 77.6% | 240 min | 0.0663 µM | 15.7 | 10.8 min |  |  |  | EC50 ([5]; read-out: pEC50 (converted)): 0.309 µM; MPE [31]: 80.5%; MPE [32]: 95.6%; MPE [33]: 88.7%; Ratio EC50 [34]: 7 |
| CN1C(=O)CNC(=O)[C@H](NC(=O)[C@@H](N)Cc2ccc(O)cc2)CCCCNC(=O)C[C@H](C(=O)N2CCC[C@H]2C(=O)N[C@@H](CCC(N)=O)C(=O)N[C@@H](CCCNC(=N)N)C(=O)N[C@@H](Cc2ccccc2)C(N)=O)NC(=O)[C@@H]1Cc1ccccc1 (H-Y[dK]G[NMeF][dD]PQRF-NH2; lactam 2-5) | 0.19 µM |  | 0.581 µM | 59% | 60.3% | 0.0201 µmol/kg | 0.528 µM | inactive | 75.6% | 240 min | 0.586 µM |  | 18.7 min | 74.1% | 92.6% | 94.1% |  |
| CN1C(=O)CNC(=O)[C@@H](NC(=O)[C@@H](N)Cc2ccc(O)cc2)CCCCNC(=O)C[C@H](C(=O)N2CCC[C@H]2C(=O)N[C@@H](CCC(N)=O)C(=O)N[C@@H](CCCNC(=N)N)C(=O)N[C@@H](Cc2ccccc2)C(N)=O)NC(=O)[C@@H]1Cc1ccccc1 (H-YKG[NMeF][dD]PQRF-NH2; lactam 2-5) | 0.0815 µM |  | 0.923 µM | 62.4% | 62.2% | 0.0263 µmol/kg | 0.104 µM | inactive | 76.2% | 240 min | 0.167 µM |  | 6.7 min | 70.6% | 94.1% | 82.5% |  |
